3 compounds from patent US4137236A, “Amino-spiro[oxa(or thia)cycloalkane-penam]-carboxylic” (U C B, Societe Anonyme, priority 1977, dated 1979) can be followed below.

The test system of test [1] is Staphylococcus aureus 6538. The test is described as follows: MIC in gelose culture medium (relative to reference penicillin). It is filed as cell-based. To be noted: S.AUREUS 6538. As to the method:
This is a Gram-positive coccus which is particularly sensitive to penicillins and which has a low resistance mechanism. This strain of Staphylococcus is, therefore, representative of a maximum sensitivity of the species.
(§1) For a certain number of compounds of formula (XV), the minimum inhibitory concentration (MIC) was determined as follows:
(§2) The products to be tested are introduced in increasing concentrations into a gelose culture medium in Petri dishes. A multiple inoculator is used to deposit simultaneously drops (10 microliters) of inoculum (suspension of approximately 10^5 bacteria per ml) onto the surface of the medium. After incubation at 37° C for 24 hours, the growth of the bacteria is observed. By definition, the MIC is expressed by the minimum concentration of tested compound which inhibits the multiplication of the bacteia. In the following results, however, the MIC is given as being equal to 1 for the reference compounds and the activity figures given for the tested compounds of formula (XV) are, therefore, relative values. This presentation of the results is more correct and the most reproducible because, for one and the same bacterial strain, different MIC values can be observed if they are measured at different times. This is bound up with the "seasonal" variations in the strains and their nutrient medium.

The test system of the next test is Escherichia coli B. The description is as above. It is filed as cell-based. The note with it: E.COLI B. Here is the method:
This is a well-known collection strain of Escherichia coli which produces very little beta-lactamase (of type I) and is, therefore, very sensitive to penicillins. As regards the classification of the beta-lactamases, use is here made of that proposed by M. H. RICHMOND and R. B. SYKES (see Advances in Microbial Physiology,9,(1973),pp.43 and 45).
as §1, §2

The test system of test [2] is Staphylococcus aureus 52149. The description is as above. It is filed as cell-based. To be noted: S.AUREUS 52149. As to the method:
This is a Gram-positive coccus, the intrinsic sensitivity of the receptor of which is equivalent to that of the preceding strain but which produces a beta-lactamase which is typical of the species and which renders it resistant to all the penicillins which are sensitive to hydrolysis.
as §1, §2

For a further test, the system named is beta-lactamase TEM. Description: Rate of hydrolysis by beta-lactamase measured as NaOH consumed per minute. It is filed as biochemical. From the text: This method allows the dosage of the penicilloic acid resulting from the hydrolysis of the beta-lactam function by the lytic enzyme. The results of these kinetics, as given in the following Table, clearly show the superiority of compounds E and H as compared with pencillin G.

Test [3] deals with Escherichia coli B-Ampi R. Description: MIC in gelose culture medium (relative to reference penicillin). It is filed as cell-based. To be noted: E.COLI B AMPI-R. As to the method:
This is a mutant of the preceding strain which we have produced.
as §1, §2

Test [4] deals with Gram-positive and Gram-negative bacteria. Description: Comparative antibacterial activity spectra. It is filed as cell-based. To be noted: towards both Gram-positive and Gram-negative bacteria. Here is the method: as §2
Where [5] appears, read: reference 6-amino-penicillanic acid = 1.

On to `O=C(Cc1ccccc1)NC1C(=O)N2C1SC1(CC[S+]([O-])CC1)C2C(=O)O` (centres unmarked) [Compound H, 6-(2"-phenylacetamido)-2',3',5',6'-tetrahydro-spiro[penam-2,4'-[4H]thiopyran]-3-carboxylic acid 1'-oxide], for which the “MIC relative to reference compound (=1)” value (in test [1] (reference penicillin G = 1); in the test on Escherichia coli B (reference penicillin G = 1); in test [2] (reference penicillin G = 1)) was 1 in each case. The “Rate of hydrolysis: microliters 0.005 N NaOH consumed per minute” value with beta-lactamase TEM is given as 0.50 microliters 0.005 N NaOH per m.
With `O=C(Cc1ccccc1)N[C@@H]1C(=O)N2[C@@H]1SC1(CCSCC1)[C@@H]2C(=O)O` (relative stereo) [Compound E, 6-(2"-phenylacetamido)-2',3',5',6'-tetrahydro-spiro[penam-2,4'-[4H]thiopyran]-3-carboxylic acid], the “MIC relative to reference compound (=1)” value in test [1] (reference penicillin G = 1) is 10; in the test with Escherichia coli B (reference penicillin G = 1) it was 5; in test [2] (reference penicillin G = 1), 1; in test [3] (reference penicillin G = 1), above 2. For the same compound, in the test on beta-lactamase TEM, the “Rate of hydrolysis: microliters 0.005 N NaOH consumed per minute” value is listed as 0.64 microliters 0.005 N NaOH per m.
With `N[C@@H]1C(=O)N2[C@@H]1SC1(CCOCC1)[C@@H]2C(=O)O` (relative stereo) [Compound D, 6-amino-2',3',5',6'-tetrahydro-spiro[penam-2,4'-[4H]-pyran]-3-carboxylic acid], the “MIC relative to reference compound (=1)” value in test [1] (setting [5]) amounted to 0.5; against Escherichia coli B (setting [5]), 0.3; in test [2] (setting [5]) it was 0.5; in test [3] (setting [5]) it was 0.3. Also, the “Activity as compared with 6-amino-penicillanic acid (in words)” value in test [4] was “better activity”.
